Assay results reported in ChEMBL document CHEMBL1909046, “DrugMatrix in vitro pharmacology data”.
pIC50, pKi: −log10 of the molar value.

Key:
[1] = DRUGMATRIX: Potassium Channel [KATP] radioligand binding (ligand: [3H] Glyburide); type: cell membranes, Membrane; details: hit-t15; Not Active = under 50% inhibition at 10 µM
[2] = DRUGMATRIX: Calcium Channel Type L, Phenylalkylamine radioligand binding (ligand: [3H] (-)-Desmethoxyverapamil (D-888)); type: cell membranes, Rattus norvegicus, Wistar, Brain, Membrane; details: Not Active = under 50% inhibition at 10 µM
Interstitial collagenase = target: T1, Interstitial collagenase (Homo sapiens, UniProt P03956); type: tissue-based, Rheumatoid synovial fibroblasts;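 also: MMP-1 enzyme inhibition assay using a peptide substrate; in other assays of this panel Not Active means under 50% inhibition at 10 µM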
T1 sequence (P03956 whole entry): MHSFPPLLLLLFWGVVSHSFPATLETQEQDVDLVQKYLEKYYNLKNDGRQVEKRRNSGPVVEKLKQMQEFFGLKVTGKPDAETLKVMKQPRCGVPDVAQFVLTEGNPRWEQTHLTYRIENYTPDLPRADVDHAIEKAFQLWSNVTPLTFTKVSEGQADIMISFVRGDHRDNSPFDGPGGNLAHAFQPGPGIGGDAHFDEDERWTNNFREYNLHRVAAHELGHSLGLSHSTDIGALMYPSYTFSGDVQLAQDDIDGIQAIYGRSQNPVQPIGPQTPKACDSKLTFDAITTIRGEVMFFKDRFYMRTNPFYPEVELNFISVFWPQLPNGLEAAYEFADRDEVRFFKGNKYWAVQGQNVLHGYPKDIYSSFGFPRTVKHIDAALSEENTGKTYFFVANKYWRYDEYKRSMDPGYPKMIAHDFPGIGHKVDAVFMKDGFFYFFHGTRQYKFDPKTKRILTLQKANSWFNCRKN

[3] = DRUGMATRIX: Phosphodiesterase PDE4 enzyme inhibition (substrate: [3H]cAMP + cAMP); details: u-937, Not Active = under 50% inhibition at 10 µM
[4] = target: 5-hydroxytryptamine receptor 2B (Homo sapiens, UniProt P41595); type: cell membranes, CHO-K1, Membrane; details: for IC50: cho-k1; for pIC50: read-out: IC50; for pKi: read-out: Ki; as to all read-outs here: in other assays of this panel Not Active means under 50% inhibition at 10 µM
Chain of 5-hydroxytryptamine receptor 2B (P41595 whole entry): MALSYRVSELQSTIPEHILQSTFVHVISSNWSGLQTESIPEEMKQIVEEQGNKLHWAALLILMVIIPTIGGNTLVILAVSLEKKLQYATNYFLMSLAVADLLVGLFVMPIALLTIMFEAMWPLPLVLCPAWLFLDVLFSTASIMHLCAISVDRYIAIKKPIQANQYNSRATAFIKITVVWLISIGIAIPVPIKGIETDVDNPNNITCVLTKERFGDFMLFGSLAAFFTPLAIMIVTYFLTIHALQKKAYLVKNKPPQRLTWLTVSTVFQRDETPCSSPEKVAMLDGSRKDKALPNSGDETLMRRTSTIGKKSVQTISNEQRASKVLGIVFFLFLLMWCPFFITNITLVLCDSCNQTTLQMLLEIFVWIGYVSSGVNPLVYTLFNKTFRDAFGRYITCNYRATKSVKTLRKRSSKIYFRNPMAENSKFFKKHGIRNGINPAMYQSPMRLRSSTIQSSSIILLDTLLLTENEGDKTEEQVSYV

Estrogen receptor = target: T2, Estrogen receptor (Homo sapiens, UniProt P03372); details: sf9; also: in other assays of this panel Not Active means under 50% inhibition at 10 µM
T2 sequence (P03372 whole entry): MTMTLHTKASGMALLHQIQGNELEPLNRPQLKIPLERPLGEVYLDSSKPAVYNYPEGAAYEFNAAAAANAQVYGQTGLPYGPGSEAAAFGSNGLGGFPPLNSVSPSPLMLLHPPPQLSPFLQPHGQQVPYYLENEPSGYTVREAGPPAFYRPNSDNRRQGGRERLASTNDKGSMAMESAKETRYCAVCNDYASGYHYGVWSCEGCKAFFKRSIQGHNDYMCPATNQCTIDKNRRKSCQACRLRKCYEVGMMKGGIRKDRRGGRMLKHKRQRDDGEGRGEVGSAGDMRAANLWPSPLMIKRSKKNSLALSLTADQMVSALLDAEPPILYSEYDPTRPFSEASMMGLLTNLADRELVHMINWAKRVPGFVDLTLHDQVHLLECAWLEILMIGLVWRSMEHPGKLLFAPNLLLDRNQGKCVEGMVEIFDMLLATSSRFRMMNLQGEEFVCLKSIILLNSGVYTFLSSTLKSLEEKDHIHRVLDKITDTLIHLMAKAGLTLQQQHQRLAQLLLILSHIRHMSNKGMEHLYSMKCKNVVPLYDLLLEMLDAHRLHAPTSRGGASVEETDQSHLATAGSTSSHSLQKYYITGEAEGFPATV

[5] = DRUGMATRIX: Sigma2 radioligand binding (ligand: [3H] Ifenprodil); type: cell membranes, Rattus norvegicus, Wistar, Brain, Membrane; details: Not Active = under 50% inhibition at 10 µM
B2 bradykinin receptor = target: T3, B2 bradykinin receptor (Homo sapiens, UniProt P30411); type: cell membranes, Membrane; details: chem-1; also: in other assays of this panel Not Active means under 50% inhibition at 10 µM
T3 sequence (P30411 whole entry): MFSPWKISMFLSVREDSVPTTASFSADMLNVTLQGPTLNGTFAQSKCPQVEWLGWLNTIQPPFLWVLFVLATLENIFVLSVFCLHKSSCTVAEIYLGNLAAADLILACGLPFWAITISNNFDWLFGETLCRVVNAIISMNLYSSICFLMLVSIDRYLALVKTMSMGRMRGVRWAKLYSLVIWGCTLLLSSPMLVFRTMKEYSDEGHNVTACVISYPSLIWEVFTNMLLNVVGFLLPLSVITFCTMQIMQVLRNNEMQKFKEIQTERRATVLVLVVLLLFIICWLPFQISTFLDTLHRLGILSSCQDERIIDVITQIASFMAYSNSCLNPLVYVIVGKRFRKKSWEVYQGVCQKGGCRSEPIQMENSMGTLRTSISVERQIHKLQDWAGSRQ

[6] = target: Prostaglandin G/H synthase 1 (Homo sapiens, UniProt P23219); test: biochemical; type: tissue-based, Platelet; details: platelet
Chain of Prostaglandin G/H synthase 1 (P23219 whole entry): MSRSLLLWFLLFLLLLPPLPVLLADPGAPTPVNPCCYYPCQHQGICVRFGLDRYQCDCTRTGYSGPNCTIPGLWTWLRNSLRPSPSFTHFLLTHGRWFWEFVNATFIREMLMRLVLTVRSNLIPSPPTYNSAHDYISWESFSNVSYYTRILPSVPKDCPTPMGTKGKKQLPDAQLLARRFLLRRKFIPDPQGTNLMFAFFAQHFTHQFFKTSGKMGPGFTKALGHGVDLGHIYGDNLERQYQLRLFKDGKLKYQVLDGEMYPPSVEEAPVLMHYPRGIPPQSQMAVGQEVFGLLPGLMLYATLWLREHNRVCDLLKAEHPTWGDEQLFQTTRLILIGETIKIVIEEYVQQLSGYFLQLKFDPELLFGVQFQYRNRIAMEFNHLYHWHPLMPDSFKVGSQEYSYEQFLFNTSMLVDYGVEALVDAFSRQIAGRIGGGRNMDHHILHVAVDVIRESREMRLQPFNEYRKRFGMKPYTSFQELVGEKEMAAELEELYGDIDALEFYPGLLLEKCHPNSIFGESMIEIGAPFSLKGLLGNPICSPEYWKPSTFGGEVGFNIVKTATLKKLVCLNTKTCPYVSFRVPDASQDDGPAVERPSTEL

Adenosine receptor A3 = target: T4, Adenosine receptor A3 (Homo sapiens, UniProt P0DMS8); type: cell membranes, CHO-K1, Membrane; details: cho-k1
T4 sequence (P0DMS8 whole entry): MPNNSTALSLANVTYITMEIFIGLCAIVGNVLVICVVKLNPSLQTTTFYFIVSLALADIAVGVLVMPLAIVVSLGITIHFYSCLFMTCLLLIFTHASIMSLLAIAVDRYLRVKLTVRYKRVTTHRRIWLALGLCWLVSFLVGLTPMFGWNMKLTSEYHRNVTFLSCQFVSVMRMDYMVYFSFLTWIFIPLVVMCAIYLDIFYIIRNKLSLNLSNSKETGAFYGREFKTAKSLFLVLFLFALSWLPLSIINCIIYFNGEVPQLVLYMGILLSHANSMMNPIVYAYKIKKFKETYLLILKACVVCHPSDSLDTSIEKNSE

Carbonic anhydrase 2 = Carbonic anhydrase 2 (Homo sapiens, UniProt P00918); test: DRUGMATRIX: Carbonic Anhydrase II enzyme inhibition (substrate: 4-Nitrophenyl acetate (4-NPA)); type: tissue-based, Erythrocyte; details: erythrocyte; Not Active = under 50% inhibition at 10 µM
Calcitonin receptor = target: T5, Calcitonin receptor (Homo sapiens, UniProt P30988); type: cell membranes, Membrane; details: t47d; also: in other assays of this panel Not Active means under 50% inhibition at 10 µM
T5 sequence (P30988 whole entry): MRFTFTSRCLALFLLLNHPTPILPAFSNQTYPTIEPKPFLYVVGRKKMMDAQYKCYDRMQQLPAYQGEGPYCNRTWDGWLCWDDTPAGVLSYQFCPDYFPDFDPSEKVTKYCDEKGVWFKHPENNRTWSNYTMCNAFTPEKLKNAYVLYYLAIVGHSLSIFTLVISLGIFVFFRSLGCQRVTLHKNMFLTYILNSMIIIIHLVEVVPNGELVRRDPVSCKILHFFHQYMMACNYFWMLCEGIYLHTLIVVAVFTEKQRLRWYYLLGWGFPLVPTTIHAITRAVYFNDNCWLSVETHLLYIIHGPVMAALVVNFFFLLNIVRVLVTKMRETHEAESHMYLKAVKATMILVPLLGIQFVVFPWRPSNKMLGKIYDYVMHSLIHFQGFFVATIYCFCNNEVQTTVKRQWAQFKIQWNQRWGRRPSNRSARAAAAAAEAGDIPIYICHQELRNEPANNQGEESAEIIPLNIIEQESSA

SMILES | IC50 [1] | Ki [1] | IC50 [2] | Ki [2] | IC50 (Interstitial collagenase) | IC50 [3] | Ki [3] | IC50 [4] | IC50 (Estrogen receptor) | IC50 [5] | Ki [5] | IC50 (B2 bradykinin receptor) | IC50 [6] | IC50 (Adenosine receptor A3) | IC50 (Carbonic anhydrase 2) | IC50 (Calcitonin receptor) | further results
C[C@]12CCC(=O)C=C1CC[C@@H]1[C@@H]2C(=O)C[C@@]2(C)[C@H]1CC[C@]2(O)C(=O)CO [CORTISONE] | Not Active | Not Active | Not Active | Not Active | Not Active | Not Active | Not Active | Not Active | Not Active | Not Active | Not Active | Not Active | Not Active | Not Active | Not Active | Not Active | –
CNCCC=C1c2ccccc2CCc2ccccc21 [NORTRIPTYLINE] | Not Active | Not Active | – | – | Not Active | Not Active | Not Active | – | Not Active | Not Active | Not Active | Not Active | Not Active | Not Active | Not Active | Not Active | pIC50 ([2]; read-out: IC50): 5.72; pKi ([2]; read-out: Ki): 5.74; pIC50 [4]: 6.87; pKi [4]: 7.07
CC[C@@]1(O)C(=O)OCc2c1cc1n(c2=O)Cc2cc3ccccc3nc2-1 [CAMPTOTHECIN] | Not Active | Not Active | Not Active | Not Active | Not Active | Not Active | Not Active | – | Not Active | Not Active | Not Active | Not Active | Not Active | Not Active | Not Active | Not Active | pIC50 [4]: 6.01; pKi [4]: 6.21
CCCCOC(=O)c1ccc(N)cc1 [BUTAMBEN] | Not Active | Not Active | Not Active | Not Active | Not Active | Not Active | Not Active | Not Active | Not Active | Not Active | Not Active | Not Active | Not Active | Not Active | Not Active | Not Active | –
CC1=Nc2ccc(Cl)cc2S(=O)(=O)N1 [DIAZOXIDE] | Not Active | Not Active | Not Active | Not Active | Not Active | Not Active | Not Active | Not Active | Not Active | Not Active | Not Active | Not Active | Not Active | Not Active | Not Active | Not Active | –
COC(=O)[C@H](c1ccccc1Cl)N1CCc2sccc2C1 [CLOPIDOGREL] | Not Active | Not Active | Not Active | Not Active | Not Active | Not Active | Not Active | Not Active | Not Active | Not Active | Not Active | Not Active | Not Active | Not Active | Not Active | Not Active | –
O=c1cc(-c2ccccc2)oc2c1ccc1ccccc12 [ALPHA-NAPHTHOFLAVONE] | Not Active | Not Active | Not Active | Not Active | Not Active | – | – | Not Active | Not Active | Not Active | Not Active | Not Active | Not Active | Not Active | Not Active | Not Active | pIC50 ([3]; read-out: IC50): 5.53
C=C1[C@@H]2CCC3[C@@](CC[C@@H]4[C@H](C(=O)O)C[C@@H](O[C@@H]5O[C@H](CO)[C@@H](OS(=O)(=O)[O-])[C@H](OS(=O)(=O)[O-])[C@H]5OC(=O)CC(C)C)C[C@@]34C)(C2)[C@@H]1O.[K+].[K+] (stereo not given in full) [ATRACTYLOSIDE] | Not Active | Not Active | Not Active | Not Active | Not Active | Not Active | Not Active | Not Active | Not Active | Not Active | Not Active | Not Active | Not Active | Not Active | Not Active | Not Active | –
NS(=O)(=O)c1cc2c(cc1Cl)NCNS2(=O)=O [HYDROCHLOROTHIAZIDE] | Not Active | Not Active | Not Active | Not Active | Not Active | Not Active | Not Active | Not Active | Not Active | Not Active | Not Active | Not Active | Not Active | Not Active | Not Active | Not Active | –
